According to publication doi:10.1101/2023.03.18.532921v1 (biorxiv, 2023):

Biological target: dA (isolated discontinuous domain A of LAO) (Salmonella enterica, UniProt P02911, DEL114-206)
Experiment: biochemical

N=C(N)NCCC[C@H](N)C(=O)O [L-arginine]
Kd: 131 µM
